For 6 compounds, speed of sound results are on record in the NIST ThermoML archive (doi:10.1016/j.jct.2014.07.026).

As a reminder, the speed of sound is the propagation velocity of pressure waves in the medium.

± gives the expanded uncertainty stated by the source.

Assay in the first data set: not given
Particulars: 298.15 K; 100 kPa; Liquid; Frequency=2 MHz; Linear variable-path acoustic interferometer.
Regarding `O` [water], the speed of sound was 1497.7 ± 2.5 m/s.

A further data set in a line: mn = molality of the nth substance listed, in mol/kg. Conditions: 298.15 K; 100 kPa; Liquid; Frequency=2 MHz; Linear variable-path acoustic interferometer; m2 = 0.
For `O` [water] + CC(C)[C@H](N)C(=O)[O-].CCCCn1cc[n+](C)c1, the speed of sound is recorded as 1497.6 ± 2.5 m/s.

Consider `O` [water] + CCCCn1cc[n+](C)c1.CC[C@H](C)[C@H](N)C(=O)[O-], for which the speed of sound is 1497.8 ± 2.5 m/s.

Take `O` [water] + CC(C)C[C@H](N)C(=O)[O-].CCCCn1cc[n+](C)c1: the speed of sound is on record as 1497.6 ± 2.5 m/s.

In the case of `O` [water] + CCCCn1cc[n+](C)c1.C[C@H](N)C(=O)[O-], the speed of sound was 1497.8 ± 2.5 m/s.

Consider `O` [water] + CCCCn1cc[n+](C)c1.NCC(=O)[O-], for which the speed of sound was 1497.6 ± 2.5 m/s.
